Patent US8435980B2 (AbbVie Inc., priority 2009, dated 2013)

target: T1, Cdc7 (BEV coexpressed huCDC7/DBF4) (Homo sapiens, UniProt O00311); experiment: Cdc7 enzyme inhibition assay ([33P]ATP, biotinylated peptide substrate, FlashPlate); type: biochemical; settings: Table 3; enzyme inhibition data (Ki)
T1 construct: made in house; host or cells: BEV (baculovirus expression vector) co-expression; insect cells are implied but no cell line is named
Description: Cdc7 (BEV coexpressed huCDC7/DBF4) is prepared internally. Cdc7 assays are conducted as follows with final concentrations as listed. […] Reactions are quenched after 1 hr by the addition of 90 μL stop buffer (50 mM EDTA, 2M NaCl). […] (Ki) for exemplary compounds.

T1 sequence (O00311 whole entry): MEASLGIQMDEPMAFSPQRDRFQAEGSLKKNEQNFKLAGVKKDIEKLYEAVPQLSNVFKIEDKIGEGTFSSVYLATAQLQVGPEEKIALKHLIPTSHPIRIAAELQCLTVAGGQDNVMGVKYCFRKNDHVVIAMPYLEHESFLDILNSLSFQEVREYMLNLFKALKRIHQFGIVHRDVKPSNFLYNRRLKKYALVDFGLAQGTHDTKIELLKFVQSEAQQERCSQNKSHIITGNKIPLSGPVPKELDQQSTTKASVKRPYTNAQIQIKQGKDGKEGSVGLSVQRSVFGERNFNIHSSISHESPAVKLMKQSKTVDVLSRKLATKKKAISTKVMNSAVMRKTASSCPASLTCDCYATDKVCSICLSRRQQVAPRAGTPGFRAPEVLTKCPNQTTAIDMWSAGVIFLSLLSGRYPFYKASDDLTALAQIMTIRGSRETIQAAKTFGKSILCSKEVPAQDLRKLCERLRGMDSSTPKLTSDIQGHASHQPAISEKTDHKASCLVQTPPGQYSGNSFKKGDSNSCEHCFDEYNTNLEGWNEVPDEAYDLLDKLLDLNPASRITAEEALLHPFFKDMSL
T1 sequence (Q9UBU7 whole entry partner): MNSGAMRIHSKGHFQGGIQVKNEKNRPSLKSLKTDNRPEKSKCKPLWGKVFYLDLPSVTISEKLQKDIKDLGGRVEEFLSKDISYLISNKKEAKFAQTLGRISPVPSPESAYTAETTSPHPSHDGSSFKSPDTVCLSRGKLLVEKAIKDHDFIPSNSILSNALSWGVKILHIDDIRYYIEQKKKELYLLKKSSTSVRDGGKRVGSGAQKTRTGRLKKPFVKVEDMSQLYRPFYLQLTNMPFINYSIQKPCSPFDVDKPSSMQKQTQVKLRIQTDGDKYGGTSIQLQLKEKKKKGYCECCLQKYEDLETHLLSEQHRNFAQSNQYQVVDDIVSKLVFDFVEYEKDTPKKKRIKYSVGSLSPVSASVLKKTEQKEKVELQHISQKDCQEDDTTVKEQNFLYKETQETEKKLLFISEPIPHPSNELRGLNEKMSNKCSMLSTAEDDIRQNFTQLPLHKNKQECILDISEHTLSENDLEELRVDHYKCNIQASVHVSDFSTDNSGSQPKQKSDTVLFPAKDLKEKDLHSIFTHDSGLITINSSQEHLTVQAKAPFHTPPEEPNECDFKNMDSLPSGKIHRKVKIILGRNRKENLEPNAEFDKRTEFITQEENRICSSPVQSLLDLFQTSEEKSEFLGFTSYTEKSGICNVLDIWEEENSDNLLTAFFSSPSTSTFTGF

Q: How did the Ki turn out when `COc1cnc2[nH]cc(-c3cc(Cl)nc(N[C@H]4CC[C@H](NC(=O)C(C)C)CC4)c3)c2c1` [Example 228, N-(trans-4-{[6-chloro-4-(5-methoxy-1H-pyrrolo[2,3-b]pyridin-3-yl)pyridin-2-yl]amino}cyclohexyl)-2-methylpropanamide] was run?
A: < 10 nM

Q: `O=C(CN1CCN(c2ccc(F)cc2)CC1)N[C@H]1CC[C@H](Nc2cc(-c3c[nH]c4ncccc34)cc(Cl)n2)CC1` [Example 229, N-(trans-4-{[6-chloro-4-(1H-pyrrolo[2,3-b]pyridin-3-yl)pyridin-2-yl]amino}cyclohexyl)-2-[4-(4-fluorophenyl)piperazin-1-yl]acetamide] was tested. Which Ki did it give?
A: < 10 nM

Q: For `O=C(CN1CCN(c2ccncc2)CC1)N[C@H]1CC[C@H](Nc2cc(-c3c[nH]c4ncccc34)cc(Cl)n2)CC1` [Example 230, N-(trans-4-{[6-chloro-4-(1H-pyrrolo[2,3-b]pyridin-3-yl)pyridin-2-yl]amino}cyclohexyl)-2-[4-(pyridin-4-yl)piperazin-1-yl]acetamide], which Ki is on record?
A: < 10 nM

Q: For `O=C(CN1CCN(C2CCCCC2)CC1)N[C@H]1CC[C@H](Nc2cc(-c3c[nH]c4ncccc34)cc(Cl)n2)CC1` [Example 231, N-(trans-4-{[6-chloro-4-(1H-pyrrolo[2,3-b]pyridin-3-yl)pyridin-2-yl]amino}cyclohexyl)-2-(4-cyclohexylpiperazin-1-yl)acetamide], which Ki is on record?
A: < 10 nM

Q: Which Ki does the source give for `CCCCN1CCN(CC(=O)N[C@H]2CC[C@H](Nc3cc(-c4c[nH]c5ncccc45)cc(Cl)n3)CC2)CC1` [Example 232, 2-(4-butylpiperazine-1-yl)-N-(trans-4-{[6-chloro-4-(1H-pyrrolo[2,3-b]pyridin-3-yl)pyridin-2-yl]amino}cyclohexyl)acetamide] here?
A: < 10 nM

Q: How did the Ki turn out when `O=C(CN1CCN(C(=O)c2ccco2)CC1)N[C@H]1CC[C@H](Nc2cc(-c3c[nH]c4ncccc34)cc(Cl)n2)CC1` [Example 233, N-(trans-4-{[6-chloro-4-(1H-pyrrolo[2,3-b]pyridin-3-yl)pyridin-2-yl]amino}cyclohexyl)-2-[4-(furan-2-ylcarbonyl)piperazin-1-yl]acetamide] was run?
A: < 10 nM

Q: With `N#Cc1ccccc1N1CCN(CC(=O)N[C@H]2CC[C@H](Nc3cc(-c4c[nH]c5ncccc45)cc(Cl)n3)CC2)CC1` [Example 234, N-(trans-4-{[6-chloro-4-(1H-pyrrolo[2,3-b]pyridin-3-yl)pyridin-2-yl]amino}cyclohexyl)-2-[4-(2-cyanophenyl)piperazin-1-yl]acetamide] as the molecule, how does the Ki read?
A: < 10 nM

Q: Which Ki does the source give for `O=C(O)c1cnc2[nH]cc(-c3cc(Cl)nc(NC4CCCCC4)c3)c2c1` [Example 235, 3-[2-chloro-6-(cyclohexylamino)pyridin-4-yl]-1H-pyrrolo[2,3-b]pyridine-5-carboxylic acid] here?
A: < 10 nM

Q: For `COc1cnc2[nH]cc(-c3cc(Cl)nc(NC4CCC(C5CCNCC5)CC4)c3)c2c1` (centres unmarked) [Example 236, 6-chloro-4-(5-methoxy-1H-pyrrolo[2,3-b]pyridin-3-yl)-N-[4-(piperidin-4-yl)cyclohexyl]pyridin-2-amine], which Ki is on record?
A: < 10 nM

Q: Which Ki does the source give for `COc1cnc2[nH]cc(-c3cc(Cl)nc(NC4CCC(CC5CCC(N)CC5)CC4)c3)c2c1` (centres unmarked) [Example 237, N-{4-[(4-aminocyclohexyl)methyl]cyclohexyl}-6-chloro-4-(5-methoxy-1H-pyrrolo[2,3-b]pyridin-3-yl)pyridin-2-amine] here?
A: < 10 nM

Q: How did the Ki turn out when `COc1cnc2[nH]cc(-c3cc(Cl)nc(NC4CCC(CC5CCC(NC6CCCCC6)CC5)CC4)c3)c2c1` (centres unmarked) [Example 238, 6-chloro-N-(4-{[4-(cyclohexylamino)cyclohexyl]methyl}cyclohexyl)-4-(5-methoxy-1H-pyrrolo[2,3-b]pyridin-3-yl)pyridin-2-amine] was run?
A: < 10 nM

Q: With `Clc1cc(-c2c[nH]c3ncc(Nc4ccccc4)cc23)cc(NC2CCCCC2)n1` [Example 239, 3-[2-chloro-6-(cyclohexylamino)pyridin-4-yl]-N-phenyl-1H-pyrrolo[2,3-b]pyridin-5-amine] as the molecule, how does the Ki read?
A: 10 to 100 nM

Q: Which Ki does the source give for `COc1cnc2[nH]cc(-c3cc(Cl)nc(NC4CCC(CC5CCC(NC(=O)C6CC6)CC5)CC4)c3)c2c1` (centres unmarked) [Example 240, N-[4-[(4-{[6-chloro-4-(5-methoxy-1H-pyrrolo[2,3-b]pyridin-3-yl)pyridin-2-yl]amino}cyclohexyl)methyl]cyclohexyl]cyclopropanecarboxamide] here?
A: < 10 nM

Q: `C#CCOc1cnc2[nH]cc(-c3cc(Cl)nc(N[C@H]4CC[C@H](N)CC4)c3)c2c1` [Example 241, (trans)-N1-(6-chloro-4-(5-(prop-2-ynyloxy)-1H-pyrrolo[2,3-b]pyridin-3-yl)pyridin-2-yl)cyclohexane-1,4-diamine] was tested. Which Ki did it give?
A: 10 to 100 nM

Q: For `O=C(NCc1ccccn1)c1cnc2[nH]cc(-c3cc(Cl)nc(NC4CCCCC4)c3)c2c1` [Example 242, 3-[2-chloro-6-(cyclohexylamino)pyridin-4-yl]-N-(pyridin-2-ylmethyl)-1H-pyrrolo[2,3-b]pyridine-5-carboxamide], which Ki is on record?
A: < 10 nM

Q: With `Clc1cc(-c2c[nH]c3ncc(-c4cncnc4)cc23)cc(NC2CCCCC2)n1` [Example 243, 6-chloro-N-cyclohexyl-4-[5-(pyrimidin-5-yl)-1H-pyrrolo[2,3-b]pyridin-3-yl]pyridin-2-amine] as the molecule, how does the Ki read?
A: < 10 nM

Q: Which Ki does the source give for `CCCCS(=O)(=O)N[C@H]1CC[C@H](Nc2cc(-c3c[nH]c4ncc(OC)cc34)cc(Cl)n2)CC1` [Example 244, N-(trans-4-{[6-chloro-4-(5-methoxy-1H-pyrrolo[2,3-b]pyridin-3-yl)pyridin-2-yl]amino}cyclohexyl)butane-1-sulfonamide] here?
A: < 10 nM

Q: Which Ki does the source give for `Nc1ccc(-c2cnc3[nH]cc(-c4cc(Cl)nc(NC5CCCCC5)c4)c3c2)cn1` [Example 245, 4-[5-(6-aminopyridin-3-yl)-1H-pyrrolo[2,3-b]pyridin-3-yl]-6-chloro-N-cyclohexylpyridin-2-amine] here?
A: < 10 nM

Q: `COc1cnc2[nH]cc(-c3cc(Cl)nc(N[C@H]4CC[C@H](NC(=O)CN)CC4)c3)c2c1` [Example 246, N-(trans-4-{[6-chloro-4-(5-methoxy-1H-pyrrolo[2,3-b]pyridin-3-yl)pyridin-2-yl]amino}cyclohexyl)glycinamide] was tested. Which Ki did it give?
A: < 10 nM

Q: With `COc1ccnc2[nH]cc(-c3cc(Cl)nc(NC4CCCCC4)c3)c12` [Example 247, 6-chloro-N-cyclohexyl-4-(4-methoxy-1H-pyrrolo[2,3-b]pyridin-3-yl)pyridin-2-amine] as the molecule, how does the Ki read?
A: < 10 nM

Q: Which Ki does the source give for `CCNC(=O)Nc1cnc2[nH]cc(-c3cc(Cl)nc(NC4CCCCC4)c3)c2c1` [Example 248, 1-{3-[2-chloro-6-(cyclohexylamino)pyridin-4-yl]-1H-pyrrolo[2,3-b]pyridin-5-yl}-3-ethylurea] here?
A: < 10 nM

Q: With `O=C(N[C@H]1CC[C@H](Nc2cc(-c3c[nH]c4ncccc34)cc(Cl)n2)CC1)C1CN(Cc2ccncc2)C1` [Example 249, N-(trans-4-{[6-chloro-4-(1H-pyrrolo[2,3-b]pyridin-3-yl)pyridin-2-yl]amino}cyclohexyl)-1-(pyridin-4-ylmethyl)azetidine-3-carboxamide] as the molecule, how does the Ki read?
A: < 10 nM

Q: How did the Ki turn out when `O=C(N[C@H]1CC[C@H](Nc2cc(-c3c[nH]c4ncccc34)cc(Cl)n2)CC1)C1CN(C2CCNCC2)C1` [Example 250, N-(trans-4-{[6-chloro-4-(1H-pyrrolo[2,3-b]pyridin-3-yl)pyridin-2-yl]amino}cyclohexyl)-1-(piperidin-4-yl)azetidine-3-carboxamide] was run?
A: < 10 nM
